We go through 2 compounds from patent US20090306116A1, “PYRIMIDINE DERIVATIVES FOR THE INHIBITION OF IGF-IR TYROSINE KINASE ACTIVITY” (AstraZeneca AB, priority 2005, published 2009).

SMILES strings stand for the structures.

The test system of this assay is murine fibroblasts (NIH3T3) over-expressing human IGF-1 receptor. In words: Inhibition of IGF-stimulated cell proliferation (BrdU incorporation), Test (c). It is filed as cell-based. Particulars: inhibition of IGF-stimulated proliferation in NIH3T3 over-expressing human IGF-1 receptor. Here is the method:
The construction of murine fibroblasts (NIH3T3) over-expressing human IGF-1 receptor has been described by Lammers et al (EMBO J, 8, 1369-1375, 1989). These cells show a proliferative response to IGF-I which can be measured by BrdU incorporation into newly synthesised DNA. Compound potency was determined as causing inhibition of the IGF-stimulated proliferation in the following assay:
Cell Proliferation ELISA, BrdU (calorimetric) [Boehringer Mannheim (Diagnostics and Biochemicals) Ltd, UK. Cat no. 1 647 229].
DMEM, FCS, Glutamine, HBSS (all from Life Technologies Ltd., UK).
Human recombinant IGF-1 Animal/media grade (GroPep Limited ABN 78 008 176 298, Australia. Cat No. IU 100).
100 μg of lyophilised IGF was reconstituted in 100 ul of 10 mM HCl. Add 400 μl of 1 mg/ml BSA in PBS 25 μl aliquots @ 200 μg/ml IGF-1
10 μl of stock IGF+12.5 ml growth medium to give 8× stock of 160 ng/ml.
DMEM, 10% FCS, 2 mM glutamine.
DMEM, 1% charcoal/dextran stripped FCS, 2 mM glutamine.
Compounds are initially dissolved in DMSO to 10 mM, followed by dilutions in DMEM+1% FCS+glutamine to give a range from […] in 1-0.00045% DMSO final concentration in assay well. […]
The incorporation of BrdU in the cells (after a 4 h incorporation period) was assessed using the BrdU Cell Proliferation Elisa according to the manufacturer's protocol. […]

The IC50 is the point on the concentration scale where inhibition reaches its midpoint. Lower therefore signals inhibition by little substance. On to `Cc1cc(Nc2nccs2)nc(N2CCC[C@H]2c2cc(-c3ccccn3)no2)n1` [Example 1, S-6-Methyl-4-(2-thiazolylamino)-2-{2-[3-(pyrid-2-yl)isoxazol-5-yl]pyrrolidin-1-yl}pyrimidine], for which the IC50 was 0.17 µM. This counts as sub-micromolar.
Then `Cc1cc(Nc2ncc[nH]2)nc(N2CCC[C@H]2c2cc(-c3ccccn3)no2)n1` [Example 23, S-6-Methyl-4-(imidazol-2-ylamino)-2-{2-[3-(pyridin-2-yl)isoxazol-5-yl]pyrrolidin-1-yl}pyrimidine], with 0.45 µM.
